From ChEMBL document CHEMBL3046292, “The effects of luteolin on phenoloxidase and the growth of Spodoptera exigua (Hubner) larvae (Lepidoptera: Noctuidae)” (J Pestic Sci, 2010)
Converted amounts (≈) assume the structure as drawn. The source made the active and inactive calls. The rule behind the calls is not given here.

Assays:
[1] = biological target: T1, Phenol oxidase (Plutella xylostella) (UniProt B5U2Z5); assay: Inhibition of Spodoptera exigua larvae phenoloxidase assessed as remaining activity at 0.15 mmol/l
T1 sequence (whole entry): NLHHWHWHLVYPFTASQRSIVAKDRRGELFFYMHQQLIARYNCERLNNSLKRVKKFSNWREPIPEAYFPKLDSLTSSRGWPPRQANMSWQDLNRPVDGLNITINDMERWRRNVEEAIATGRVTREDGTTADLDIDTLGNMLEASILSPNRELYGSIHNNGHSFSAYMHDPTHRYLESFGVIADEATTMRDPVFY

Spodoptera exigua [2] = assay: Insecticidal activity against third-instar Spodoptera exigua larvae assessed as inhibition of body weight increase at 4 g/l measured from 24 hr to 48 hr; type: functional
Spodoptera exigua [3] = assay: Insecticidal activity against third-instar Spodoptera exigua larvae assessed as eclosion at 0.8 g/l (reference value: 96.67 +/- 1.40%); type: functional
[4] = biological target: T1, Phenol oxidase (Plutella xylostella); assay: In vivo inhibition of Spodoptera exigua larvae phenoloxidase
Spodoptera exigua [5] = assay: Insecticidal activity against third-instar Spodoptera exigua larvae assessed as per pupa weight at 1.6 g/l by pupa weight inhibition assay (reference value: 0.1054 +/- 0.01 g/pupae); type: functional
Spodoptera exigua [6] = assay: Insecticidal activity against third-instar Spodoptera exigua larvae assessed as per pupa weight at 0.2 g/l by pupa weight inhibition assay (reference value: 0.1054 +/- 0.01 g/pupae); type: functional
Spodoptera exigua [7] = assay: Insecticidal activity against third-instar Spodoptera exigua larvae assessed as mortality at 16 g/l measured after 3 days; type: functional; conditions: 72 h
Spodoptera exigua [8] = assay: Insecticidal activity against third-instar Spodoptera exigua larvae assessed as mortality treated after 7 days; type: functional; conditions: 168 h
Spodoptera exigua [9] = assay: Insecticidal activity against third-instar Spodoptera exigua larvae assessed as pupation at 0.8 g/l (reference value: 96.67 +/- 1.40%); type: functional
Spodoptera exigua [10] = assay: Insecticidal activity against third-instar Spodoptera exigua larvae assessed as mortality at 16 g/l measured after 7 days; type: functional; conditions: 168 h
Spodoptera exigua [11] = assay: Insecticidal activity against third-instar Spodoptera exigua larvae assessed as pupation at 1.6 g/l (reference value: 96.67 +/- 1.40%); type: functional
Spodoptera exigua [12] = assay: Insecticidal activity against third-instar Spodoptera exigua larvae assessed as inhibition of body weight increase at 2 g/l measured from 24 hr to 48 hr; type: functional
Spodoptera exigua [13] = assay: Insecticidal activity against third-instar Spodoptera exigua larvae assessed as mortality at 8 g/l measured after 9 days; type: functional; conditions: 216 h
Spodoptera exigua [14] = assay: Insecticidal activity against third-instar Spodoptera exigua larvae assessed as eclosion at 0.1 g/l (reference value: 96.67 +/- 1.40%); type: functional
Spodoptera exigua [15] = assay: Insecticidal activity against third-instar Spodoptera exigua larvae assessed as mortality at 2 g/l measured after 11 days; type: functional; conditions: 264 h
Spodoptera exigua [16] = assay: Insecticidal activity against third-instar Spodoptera exigua larvae assessed as mortality at 16 g/l measured after 11 days; type: functional; conditions: 264 h
Spodoptera exigua [17] = assay: Insecticidal activity against third-instar Spodoptera exigua larvae assessed as mortality treated after 11 days; type: functional; conditions: 264 h
Spodoptera exigua [18] = assay: Insecticidal activity against third-instar Spodoptera exigua larvae assessed as mortality at 2 g/l measured after 5 days; type: functional; conditions: 120 h
Spodoptera exigua [19] = assay: Insecticidal activity against third-instar Spodoptera exigua larvae assessed as mortality treated after 9 days; type: functional; conditions: 216 h
Spodoptera exigua [20] = assay: Insecticidal activity against third-instar Spodoptera exigua larvae assessed as inhibition of body weight increase at 1 g/l measured from 24 hr to 48 hr; type: functional
Spodoptera exigua [21] = assay: Insecticidal activity against third-instar Spodoptera exigua larvae assessed as mortality at 2 g/l measured after 7 days; type: functional; conditions: 168 h
Spodoptera exigua [22] = assay: Insecticidal activity against third-instar Spodoptera exigua larvae assessed as mortality at 4 g/l measured after 11 days; type: functional; conditions: 264 h
Spodoptera exigua [23] = assay: Insecticidal activity against third-instar Spodoptera exigua larvae assessed as mortality at 16 g/l measured after 9 days; type: functional; conditions: 216 h
Spodoptera exigua [24] = assay: Insecticidal activity against third-instar Spodoptera exigua larvae assessed as mortality treated after 5 days; type: functional; conditions: 120 h
Spodoptera exigua [25] = assay: Insecticidal activity against third-instar Spodoptera exigua larvae assessed as pupation at 0.4 g/l (reference value: 96.67 +/- 1.40%); type: functional
Spodoptera exigua [26] = assay: Insecticidal activity against third-instar Spodoptera exigua larvae assessed as eclosion at 0.2 g/l (reference value: 96.67 +/- 1.40%); type: functional
Spodoptera exigua [27] = assay: Insecticidal activity against third-instar Spodoptera exigua larvae assessed as inhibition of body weight increase at 16 g/l measured from 24 hr to 48 hr; type: functional
Spodoptera exigua [28] = assay: Insecticidal activity against third-instar Spodoptera exigua larvae assessed as pupation at 0.2 g/l (reference value: 96.67 +/- 1.40%); type: functional
Spodoptera exigua [29] = assay: Insecticidal activity against third-instar Spodoptera exigua larvae assessed as mortality at 4 g/l measured after 5 days; type: functional; conditions: 120 h
Spodoptera exigua [30] = assay: Insecticidal activity against third-instar Spodoptera exigua larvae assessed as mortality at 2 g/l measured after 3 days; type: functional; conditions: 72 h
Spodoptera exigua [31] = assay: Insecticidal activity against third-instar Spodoptera exigua larvae assessed as eclosion at 0.4 g/l (reference value: 96.67 +/- 1.40%); type: functional
Spodoptera exigua [32] = assay: Insecticidal activity against third-instar Spodoptera exigua larvae assessed as per pupa weight at 0.1 g/l by pupa weight inhibition assay (reference value: 0.1054 +/- 0.01 g/pupae); type: functional
Spodoptera exigua [33] = assay: Insecticidal activity against third-instar Spodoptera exigua larvae assessed as eclosion at 1.6 g/l (reference value: 96.67 +/- 1.40%); type: functional
Spodoptera exigua [34] = assay: Insecticidal activity against third-instar Spodoptera exigua larvae assessed as mortality at 4 g/l measured after 7 days; type: functional; conditions: 168 h
Spodoptera exigua [35] = assay: Insecticidal activity against third-instar Spodoptera exigua larvae assessed as mortality at 8 g/l measured after 3 days; type: functional; conditions: 72 h
Spodoptera exigua [36] = assay: Insecticidal activity against third-instar Spodoptera exigua larvae assessed as mortality at 8 g/l measured after 7 days; type: functional; conditions: 168 h
[37] = biological target: T1, Phenol oxidase (Plutella xylostella); assay: Inhibition of Spodoptera exigua larvae phenoloxidase assessed as remaining activity at 0.45 mmol/l
Spodoptera exigua [38] = assay: Insecticidal activity against third-instar Spodoptera exigua larvae assessed as mortality at 8 g/l measured after 5 days; type: functional; conditions: 120 h
Spodoptera exigua [39] = assay: Insecticidal activity against third-instar Spodoptera exigua larvae assessed as mortality at 4 g/l measured after 9 days; type: functional; conditions: 216 h
Spodoptera exigua [40] = assay: Insecticidal activity against third-instar Spodoptera exigua larvae assessed as inhibition of body weight increase at 8 g/l measured from 24 hr to 48 hr; type: functional
Spodoptera exigua [41] = assay: Insecticidal activity against third-instar Spodoptera exigua larvae assessed as mortality at 16 g/l measured after 5 days; type: functional; conditions: 120 h
Spodoptera exigua [42] = assay: Insecticidal activity against third-instar Spodoptera exigua larvae assessed as mortality at 8 g/l measured after 11 days; type: functional; conditions: 264 h
Spodoptera exigua [43] = assay: Insecticidal activity against third-instar Spodoptera exigua larvae assessed as pupation at 0.1 g/l (reference value: 96.67 +/- 1.40%); type: functional
Spodoptera exigua [44] = assay: Insecticidal activity against third-instar Spodoptera exigua larvae assessed as mortality at 4 g/l measured after 3 days; type: functional; conditions: 72 h
Spodoptera exigua [45] = assay: Insecticidal activity against third-instar Spodoptera exigua larvae assessed as mortality at 2 g/l measured after 9 days; type: functional; conditions: 216 h
Spodoptera exigua [46] = assay: Insecticidal activity against third-instar Spodoptera exigua larvae assessed as per pupa weight at 0.4 g/l by pupa weight inhibition assay (reference value: 0.1054 +/- 0.01 g/pupae); type: functional
Spodoptera exigua [47] = assay: Insecticidal activity against third-instar Spodoptera exigua larvae assessed as per pupa weight at 0.8 g/l by pupa weight inhibition assay (reference value: 0.1054 +/- 0.01 g/pupae); type: functional

`O=c1cc(-c2ccc(O)c(O)c2)oc2cc(O)cc(O)c12` [LUTEOLIN] was tested, and the Activity [1] was 67.2%, the inhibition at 4000 µg/mL (Spodoptera exigua [2]) was 49.6% and the Activity (Spodoptera exigua [3]) was 43.33%. For the same compound, the inhibition [4] was “Active”, the Activity (Spodoptera exigua [5]) was 0.0647 g and the Activity (Spodoptera exigua [6]) was 0.0898 g. For the same compound, the mortality at 16000 µg/mL (Spodoptera exigua [7]) was 33.2%, the LC50 (Spodoptera exigua [8]) was 5560 µg/mL (≈ 19.4 mM) and the Activity (Spodoptera exigua [9]) was 53.33%. It also gave a mortality at 16000 µg/mL (Spodoptera exigua [10]) of 74.5%, an Activity (Spodoptera exigua [11]) of 36.67% and an inhibition at 2000 µg/mL (Spodoptera exigua [12]) of 42.7%. For the same compound, the mortality at 8000 µg/mL (Spodoptera exigua [13]) was 72.9%, the Activity (Spodoptera exigua [14]) was 86.67% and the mortality at 2000 µg/mL (Spodoptera exigua [15]) was 42.6%. For the same compound, the mortality at 16000 µg/mL (Spodoptera exigua [16]) was 90.5%, the LC50 (Spodoptera exigua [17]) was 2530 µg/mL (≈ 8.84 mM) and the mortality at 2000 µg/mL (Spodoptera exigua [18]) was 15.8%. It also gave an LC50 (Spodoptera exigua [19]) of 3540 µg/mL (≈ 12.4 mM), an inhibition at 1000 µg/mL (Spodoptera exigua [20]) of 38% and a mortality at 2000 µg/mL (Spodoptera exigua [21]) of 26.3%. For the same compound, the mortality at 4000 µg/mL (Spodoptera exigua [22]) was 61%, the mortality at 16000 µg/mL (Spodoptera exigua [23]) was 84.1% and the LC50 (Spodoptera exigua [24]) was 8970 µg/mL (≈ 31.3 mM). For the same compound, the Activity (Spodoptera exigua [25]) was 70%, the Activity (Spodoptera exigua [26]) was 83.33% and the inhibition at 16000 µg/mL (Spodoptera exigua [27]) was 66.8%. For the same compound, the Activity (Spodoptera exigua [28]) was 90%, the mortality at 4000 µg/mL (Spodoptera exigua [29]) was 38% and the mortality at 2000 µg/mL (Spodoptera exigua [30]) was 10.1%. For the same compound, the Activity (Spodoptera exigua [31]) was 66.67%, the Activity (Spodoptera exigua [32]) was 0.0905 g and the Activity (Spodoptera exigua [33]) was 36.67%. It also gave a mortality at 4000 µg/mL (Spodoptera exigua [34]) of 48.5%, a mortality at 8000 µg/mL (Spodoptera exigua [35]) of 29.8% and a mortality at 8000 µg/mL (Spodoptera exigua [36]) of 57.7%. For the same compound, the Activity [37] was 45.3%, the mortality at 8000 µg/mL (Spodoptera exigua [38]) was 47.3% and the mortality at 4000 µg/mL (Spodoptera exigua [39]) was 57.4%. It also gave an inhibition at 8000 µg/mL (Spodoptera exigua [40]) of 56.8%, a mortality at 16000 µg/mL (Spodoptera exigua [41]) of 60.6% and a mortality at 8000 µg/mL (Spodoptera exigua [42]) of 77.7%. The Activity (Spodoptera exigua [43]) was 96.67%, the mortality at 4000 µg/mL (Spodoptera exigua [44]) was 23.5% and the mortality at 2000 µg/mL (Spodoptera exigua [45]) was 33.8%. It also gave an Activity (Spodoptera exigua [46]) of 0.0798 g and an Activity (Spodoptera exigua [47]) of 0.0743 g.
